Measurements reported in patent publication EP3108883A1, “THERAPEUTIC USES OF NON-PEPTIDE INHIBITORS OF THE CALCINEURIN - NFAT SIGNALLING PATHWAY” (Fundació Institut de Recerca Biomèdica de Bellvitge, priority 2015, dated 2016).

Target: CN (Homo sapiens, UniProt Q08209)
Test: In vitro CN phosphatase assay with pNPP as substrate
Assay type: biochemical
Settings: ZnCl2 control at 50 µM
Description: CN activity towards the pNPP substrate was measured as described (McAvoy, et al., in Current Protocols in Molecular Biology. (John Wiley & Sons, Inc., 2001), vol. 92, chap. 18, pp. 18). The CN phosphatase assay kit (ENZO Life Sciences, Farmingdale, NY) was used to assess the dephosphorylation of phosphoRII peptide by CN (Mulero et al., 2009, supra.). Potential immunosuppressant CN inhibitors should compete with NFATc for binding, without blocking the general phosphatase activity of CN. As an initial screening test, the phosphatase activity of CN was analyzed using the small molecule p-nitrophenil phosphate (pNPP) as substrate (see Material and Methods). […] The ability of compounds 1-32 in inhibiting CN-NFATc signaling was evaluated in human HEK 293T cells using a luciferase gene reporter assay that includes the NFATc-dependent IL2 promoter (3[…]). After 24 hours of treatment, 50 μM of compounds 6, 9, 17, 19, 23, 25 and 29 inhibit more than 75% NFATc activity, while compounds 1, 2, 4, 8, 10, 14, and 24 inhibit 50-75% NFATc activity (Fig. 2B).

**Q.** For `[Cl-].[Cl-].[Zn+2]` [ZnCl2], which “CN phosphatase activity towards pNPP” value is on record?
**A.** strongly inhibits enzymatic activity
